The test system of one assay is NPC1L1. The experiment in a line: Western blot of small intestine homogenates, NPC1L1. The format is in vivo, mouse. The note with it: WT and apoE KO mice, compared with nontreated animals. How it is done: FIG. 8 depicts that SPT deficiency decreased NPC1L1 and ABCA1, and increased ABCG5 in mouse small intestine. Tissue homogenates were prepared as described in Methods, and equal amounts of homogenates from each mouse were pooled in each group (n=5). A total of 50 microg pooled sample from each group was immunoblotted with antibodies against NPC1L1, ABCA1, and ABCG5. Immunoblots of beta (β)-actin were used as a loading control.
Preparation and Western blot analysis of small intestine homogenates: A total of 50-100 mg of small intestine sample was homogenized and lysed proteins were immunoblotted, as previously described, (3) with a polyclonal rabbit antihuman NPC1L1 antiserum 69B, a polyclonal rabbit antimouse ABCG5 antiserum, a polyclonal antimouse ABCA1 antibody, and a monoclonal mouse anti-(beta)β-actin antibody.
Next, Western blot measurements of NPC1L1 and ABCG5/G8 were completed, where the measurement were located in apical membranes of the enterocytes. […] Also, ABCA1 was measured, which is located in the basal membranes of the enterocytes and is involved in cholesterol secretion.
In general terms: A western blot detects proteins with antibodies after separation by electrophoresis.

Another assay concerns enterocytes. Put plainly: Mouse enterocyte lipid measurement. The format is in vivo. The method, then: The mechanisms responsible for decreased cholesterol absorption in myriocin-treated or Sptlc1^+/− mice were explored. First, lipid levels were measured in enterocytes isolated from myriocin-treated and Sptlc1^+/− mice, as well as controls.
The test system of assay [1] is apical membrane SM of small intestine segments. The experiment in a line: In situ lysenin treatment and cell mortality measurement (WST-1). The format is cell-based, mouse. To be noted: jejunum segments from myriocin-treated WT mice, 5 microg/ml lysenin, 30 minutes. How it is done:
FIGS. 7A-B depict several graphs that illustrate that SPT deficiency decreased SM levels on the apical surface of mouse small intestine. Small intestines were turned inside-out and cut into 0.5 cm of segments from jejunum. The segments were then bathed in 0.5 ml of oxygenated DMEM containing 5% glutamine with 5 microg/ml lysenin or without it as control, at 37 degrees C. for 30 minutes. Then 0.05 ml of WST-1 cell proliferation reagent were added and continuously incubated at 37 degrees C. for 15 minutes. After incubation, solutions were transferred to an Eppendorf tube and quick-spun at maximum speed to pellet cell debris. Supernatants were read OD at 450 nm, a reading for viable cells. Background reading was the WST-1 reagent with no cell treatment. […]
In situ lysenin treatment and cell mortality measurement: Overnight-fasted mice were anesthetized and small intestines were isolated from WT animals with or without myriocin treatment, as well as sptlc1 KO and control mice. […] Supernatant was then measured OD at 450 nm, a reading for viable cells (WST-1 reagent with no cell incubation being the background reading). […]
Second, lysenin, a SM-specific cytotoxin, was used to measure apical membrane SM levels, since lysenin can recognize SM only when it forms aggregates or microdomains in the plasma membranes. […] Cell viability in tissue segments was measured by adding WST-1 cell proliferation reagent.
For orientation: Tetrazolium assays rely on reduction of a dye to a coloured formazan, in cell work by metabolically active cells.

The next assay has as its system ABCG8 mRNA. Put plainly: Real-time PCR, ABCG8 mRNA. The format is in vivo, mouse. To be noted: for increase of ABCG8 mRNA levels compared with controls: small intestine, P<0.01. The method, then:
FIGS. 9A-F depict that Mouse small intestine and liver NPC1L1, ABCG5/G8, and ABCA1 mRNA measurements. NPC1L1, ABCG5/G8, and ABCA1 mRNA levels were measured by real-time PCR as described in “Methods and Materials.” FIG. 9A, jejunum from WT mice with or without myriocin treatment; FIG. 9B, jejunum from apoE KO mice with or without myriocin treatment; FIG. 9C, jejunum from WT and Sptlc1^+/− mice; FIG. 9D, liver from WT mice with or without myriocin treatment; FIG. 9E, liver from apoE KO mice with or without myriocin treatment; FIG. 9F, liver from WT and Sptlc1^+/− mice. Values are mean±SD, n=5. *P<0.01.
Real-time PCR examined genes' expression: Mice were sacrificed by cervical dislocation. Jejunum was dissected, and total RNA extracted with Trizol (Invitrogen). cDNA was synthesized with an Invitrogen kit. Polymerase chain reaction (PCR) was performed on a total volume of 20 microl with the sybergreen kit from Applied Biosystems, 18S being used as an internal control. The amplification program consisted of activation at 95 degrees C. for 10 minutes, followed by 40 amplification cycles: 95 degrees C. for 15 seconds, 60 degrees C. for 1 minute. Each sample was triplicated. The genes' relative expression was expressed as mean±SD. The primers are located in the below table which lists the name, sequence, and sequence identification number.
For further elucidation of the possible mechanisms for cholesterol absorption reduction in the SPT-deficient small intestine, NPC1L1, ABCG5/G8, and ABCA1 mRNA levels in myriocin-treated WT, apoE KO, and Sptlc1^+/− mice, as well as in controls were measured. […] Moreover, intestinal MTP activity was not influenced by SPT deficiency (data not shown). Also, the liver mRNA levels were measured to find that myriocin treatment or Sptlc1 deficiency has no influence on ABCG5/G8 mRNA levels […]. […] NPC1L1 mRNA in WT or Sptlc1^+/− livers were not detected (data not shown).

[2] abbreviates: myriocin-treated mice vs controls.

Take `CCCCCCC(=O)CCCCCC/C=C/C[C@@H](O)[C@H](O)[C@@](N)(CO)C(=O)O` [Myriocin, myriocin]: in the assay with NPC1L1, the “NPC1L1 protein mass in small intestine” value is reported as “significantly decreased”. For the same molecule, in the assay on enterocytes (WT mice, mean ± SD, N=5-7), the “enterocyte Chol (cholesterol)” value was determined as 16.2 ± 1.2 microg/mg protein, the “enterocyte PC (phosphatidylcholine)” value worked out at 27.9 ± 2.3 microg/mg protein, the “enterocyte SM (sphingomyelin)” value is 6.2 ± 0.9 microg/mg protein and the “enterocyte TG (triglycerol)” value is listed as 11.1 ± 1.9 microg/mg protein. For the same molecule, in the assay with enterocytes (setting [2]), the “SM levels in enterocytes, in words” value is recorded as “significantly decreases” and the “cellular cholesterol, phosphatidylcholine, or triglyceride levels in enterocytes, in words” value was “no effect”. For the same molecule, the “sensitivity to lysenin-mediated cytolysis vs controls” value in assay [1] is listed as “significantly less sensitivity”. In addition, the “ABCG8 mRNA levels (printed ABCG5/G8)” value in the assay with ABCG8 mRNA (liver) is reported as “no influence”. In addition, in the assay with ABCG8 mRNA (WT mice), the “increase of ABCG8 mRNA levels compared with controls” value is 46%. Moreover, the “increase of ABCG8 mRNA levels compared with controls” value in the assay with ABCG8 mRNA (apoE KO mice) worked out at 63%.

These data come from US20090264528A1, “SERINE PALMITOYLCOA TRANSFERASE (SPT) INHIBITION BY MYRIOCIN OR GENETIC DEFICIENCY DECREASES CHOLESTEROL ABSORPTION” (The Research Foundation of State University of New York, priority 2008, published 2009).
